pIC50: −log10 of the molar value. Read-outs that look alike come from different tables or passages of the source. Values belong to the compound of their own block, whether it stands above or below them.
How the values were obtained:
adenosine kinase = test: AK inhibition (adenosine kinase activity, [U-14C] adenosine); assay type: biochemical, partially purified pig heart or recombinant human; conditions: 0.5 μM adenosine, 1 mM ATP, pH 7.0, 20 min; pig heart or recombinant human enzyme
Procedure: Adenosine kinase activity was measured essentially as described by Yamada et al. Biochim. Biophys. Acta 660, 3643 (1988) with a few minor modifications. Assay mixtures contained 50 mM TRIS-maleate buffer, pH 7.0, 0.1% BSA, 1 mM ATP 1 mM MgCl2, 0.5 μM [U-^14 C] adenosine (400-600 mCi/mmol) and varying duplicate concentrations of inhibitor. […] The amount of ^14 C-AMP was quantified by scintillation counting.

[1] = tested on: carrageenan paw swelling in rats; test: Anti-inflammatory activity, carrageenan paw swelling; assay type: in vivo; conditions: rat, swelling after 3 hours; for Carrageenan Paw (% inh) ip: 10 mg/kg ip, 30 min before carrageenan; for Carrageenan Paw (% inh) po: 10 mg/kg po, 1 h before carrageenan
[2] = tested on: maximal electroshock seizures (hind limb tonic extension) in male SA rats; test: Anticonvulsant activity, maximal electroshock (MES) model; assay type: in vivo; conditions: rat
[3] = Oral bioavailability in dogs; assay type: in vivo, female beagle dogs; conditions: dog, 10 mg/kg oral versus iv, dose-corrected AUC to infinity, PEG-400
Procedure: Oral bioavailability was determined by comparing the dose corrected areas under the plasma-concentration time curve (AUC) to infinity for the each tested compound, given orally and intravenously in dogs. […] One dog received this solution at an infusion rate of 0.1 mL/min for 20 minutes. The other dog received a 0.2 mL/in infusion for 10 minutes. […] The plasma was separated within 10 minutes of blood collection and was stored frozen. The plasma concentration of compound was then determined for these IV infusions. […] The plasma concentration of compound was determined for this oral administration. The samples were assayed for intact adenosine kinase inhibitor by high performance liquid chromatography (HPLC). An internal standard was added to each test sample and standard sample. Each was then extracted with 10 volumes of 1% v/v dimethylsulfoxide in acetonitrile. […] The dried residue was reconstituted in mobile phase and the contents were analyzed for the adenosine kinase inhibitor (AKI) on HPLC. […] Pharmacokinetic parameters were calculated from the plasma concentration vs. time data, using standard non-compartmental methods. […] (1983).

rat cardiomyocytes = conditions: cited from earlier work
[4] = tested on: isolated guinea pig hearts; conditions: without ADA inhibition; cited from earlier work
[5] = background; hence potentially short half life; cited from earlier work
isolated rat hearts = conditions: compound alone, cited from earlier work
mice = conditions: cited from earlier work; for general flaccidity and spontaneous locomotor activity: interpreted to be skeletal muscle relaxation
[6] = background; cited from earlier work
dog hearts = conditions: cited from earlier work
guinea pig brain slices = conditions: cited from earlier work
rat brain slices = conditions: cited from earlier work
[7] = tested on: formalin-induced pain in rats; test: Analgesic activity, formalin paw model; assay type: in vivo; conditions: rat, oral, 20 mg/kg; for % Inhibition Phase 1 Composite score: Phase 1 (1.7-5 min post-formalin); for % Inhibition Phase 2 Composite score: Phase 2 (10.3-30 min post-formalin); for % Inhibition Phase 2 Licking/biting: Phase 2, licking/biting incidences
Source text: Pharmacol. Exper. Ther., 250:3, 915-922 (1989). See also, Life Sciences 51:171-76 (1992). These models measure pain avoidance and tolerance in response to a regulated stimulus, and compare the response of animals before and after they are given test compound. Formalin Paw Assay In this assay, injection of formalin, an irritant, into the hindpaw of rats typically evokes a biphasic response of pain-related behaviors. […] Phase I behavior is thought to be a direct effect of the irritant on nociceptors at the injection site while phase 2 behavior is thought to include a hyperalgesic component mediated by sensitization of neuronal elements within the spinal cord. Studies from other laboratories have found the first portion of Phase 2 (sometimes referred to as Phase 2a) to be most responsive to pharmacological manipulation. Rats (male, Simonsen) weighing between 100-200 g, are used in the present experiments. For screening purposes drugs are administered orally 90 min prior to initiation of formalin test. […] The rat is then immediately placed in a separate plexiglass box and scoring (described below) of the animal's behavior is begun at 1.7 min after formalin injection. […] This sequence is repeated over a 30 min period. […] Scores are continuously recorded directly onto an Excel spreadsheet.

[8] = tested on: hot plate pain response in male SA rats; test: Analgesic activity, hot plate; assay type: in vivo; conditions: rat, po
Source text: Ther., 250:3, 915-922 (1989). See also, Life Sciences 51:171-76 (1992). These models measure pain avoidance and tolerance in response to a regulated stimulus, and compare the response of animals before and after they are given test compound.

[9] = ip, ">5" = HTE inhibited in fewer than 50% of animals at 5 mg/kg screen, ">>" (written >) = no activity, "<" = maximal activity at stated dose, read-out: Anticonvulsant ED50 (MES) ip
[10] = po, fasted overnight, ">>" (written >) = no activity at stated dose, read-out: Anticonvulsant ED50 (MES) po

Compound: CCOC(=O)Cc1ccc(Nc2ncnc3c2c(-c2ccccc2)cn3[C@@H]2O[C@H](C)[C@@H](O)[C@H]2O)cc1 [compound 127]
pIC50 (adenosine kinase): 8.70 | Carrageenan Paw (% inh) ip [1]: 5.4 % inh | Carrageenan Paw (% inh) po [1]: 2.9 % inh | ED50 [2, 9]: 5 mg/kg

% Oral Availability [3]: 47%
Compound: C[C@H]1O[C@@H](n2cc(-c3ccc(F)cc3)c3c(Nc4ccc(F)cc4)ncnc32)[C@H](O)[C@@H]1O [compound 2]

Compound: NC[C@H]1O[C@@H](n2cnc3c(N)ncnc32)[C@H](O)[C@@H]1O [5'-amino-5'-deoxyadenosine]
increase in adenosine release (rat cardiomyocytes; together with ADA inhibition): 6 fold | adenosine release in the absence of ADA inhibition [4]: These effects were not apparent in the absence of ADA inhibition | susceptibility to deamination [5]: susceptibility of 5'-amino-5'-deoxyadenosine to deamination

Compound: Nc1ncnc2c1c(I)cn2[C@@H]1O[C@H](CO)[C@@H](O)[C@H]1O [5-iodotubercidin]
perfusate adenosine concentration, hypoxic, anoxic or ischemic (isolated rat hearts; hypoxic, anoxic or ischemic conditions): no increase in perfusate adenosine concentration | perfusate adenosine concentration, normoxic (isolated rat hearts; normoxic conditions): no increase in perfusate adenosine concentration | body temperature (hypothermia) (mice): hypothermia | general flaccidity and spontaneous locomotor activity (mice): pronounced general flaccidity and much-reduced spontaneous locomotor activity | cytotoxicity [6]: cytotoxicity of 5-iodotubercidin | effects in dog heart ischemia and reperfusion (dog hearts): inconsistent effects | adenosine uptake, guinea pig brain slices (guinea pig brain slices): adenosine uptake was reportedly inhibited | adenosine uptake, rat brain slices (rat brain slices): adenosine uptake was reportedly inhibited

Compound: C[C@H]1O[C@@H](n2cc(I)c3c(N)ncnc32)[C@H](O)[C@@H]1O [5'-deoxy-5-iodotubercidin]
body temperature (hypothermia) (mice): hypothermia | general flaccidity and spontaneous locomotor activity (mice): pronounced general flaccidity and much-reduced spontaneous locomotor activity | adenosine uptake, guinea pig brain slices (guinea pig brain slices): adenosine uptake was reportedly inhibited | adenosine uptake, rat brain slices (rat brain slices): adenosine uptake was reportedly inhibited

Compound: CC(=O)Nc1ccc(Nc2ncnc3c2c(-c2ccccc2)cn3[C@@H]2O[C@H](C)[C@@H](O)[C@H]2O)cc1 [compound 32]
pIC50 (adenosine kinase): 9.30 | % Inhibition Phase 1 Composite score [7]: 0% | % Inhibition Phase 2 Composite score [7]: 30.9% | % Inhibition Phase 2 Licking/biting [7]: 56% | ED50 [2, 10]: > 10 mg/kg

pIC50 (adenosine kinase): 8.00
Compound: [N-]=[N+]=NC[C@H]1O[C@@H](n2nc(-c3cccs3)c3c(Nc4ccccc4)ncnc32)[C@H](O)[C@@H]1O [compound 97]
Anticonvulsant ED50 (MES) ip ([2]; ip, ">5" = HTE inhibited in fewer than 50% of animals at 5 mg/kg screen, ">>" (written >) = no activity, "<" = maximal activity at stated dose): > 5 mg/kg

Compound: C[C@H]1O[C@@H](n2cc(-c3ccccc3)c3c(Nc4ccc(F)cc4)ncnc32)[C@H](O)[C@@H]1O [compound 1]
pIC50 (adenosine kinase): 7.96 | % Inhibition Phase 1 Composite score [7]: 7.4% | % Inhibition Phase 2 Composite score [7]: 33.3% | % Inhibition Phase 2 Licking/biting [7]: 59% | ED50 [8]: 16.6 mg/kg | Carrageenan Paw (% inh) ip [1]: 3.5 % inh | Carrageenan Paw (% inh) po [1]: 0.2 % inh

pIC50 (adenosine kinase): 8.30
Compound: C[C@H]1O[C@@H](n2cc(-c3ccccc3)c3c(Nc4ccc(S(N)(=O)=O)cc4)ncnc32)[C@H](O)[C@@H]1O [compound 34]
Carrageenan Paw (% inh) ip [1]: 1.7 % inh | Carrageenan Paw (% inh) po [1]: 0 % inh | ED50 [2, 10]: > 10 mg/kg

pIC50 (adenosine kinase): 8.22
Compound: C[C@H]1O[C@@H](n2cc(-c3ccc(CO)cc3)c3c(Nc4ccccc4)ncnc32)[C@H](O)[C@@H]1O [compound 130]
Carrageenan Paw (% inh) ip [1]: 0.0 % inh | Carrageenan Paw (% inh) po [1]: 3.9 % inh | ED50 [2, 9]: > 5 mg/kg

Compound: OC[C@H]1O[C@@H](n2cnc3c2N=CNC[C@H]3O)C[C@@H]1O [2'-deoxycoformycin]
effect on adenosine release from the cells (rat cardiomyocytes; adenosine deaminase inhibition): no effect on adenosine release from the cells

Source: patent US5763597A, “Orally active adenosine kinase inhibitors” (priority 1996, dated 1998)
